Experimental data published in ChEMBL document CHEMBL1145407, “Structure-activity relationships of alpha-ketooxazole inhibitors of fatty acid amide hydrolase” (J Med Chem, 2007).
pKi: −log10 of the molar value.

Assays:
[1] = Selectivity for rat recombinant FAAH over TGH
[2] = biological target: T1, Fatty-acid amide hydrolase 1 (Rattus norvegicus, UniProt P97612); assay: Inhibition of rat recombinant FAAH expressed in Escherichia coli
T1 sequence (P97612 whole entry): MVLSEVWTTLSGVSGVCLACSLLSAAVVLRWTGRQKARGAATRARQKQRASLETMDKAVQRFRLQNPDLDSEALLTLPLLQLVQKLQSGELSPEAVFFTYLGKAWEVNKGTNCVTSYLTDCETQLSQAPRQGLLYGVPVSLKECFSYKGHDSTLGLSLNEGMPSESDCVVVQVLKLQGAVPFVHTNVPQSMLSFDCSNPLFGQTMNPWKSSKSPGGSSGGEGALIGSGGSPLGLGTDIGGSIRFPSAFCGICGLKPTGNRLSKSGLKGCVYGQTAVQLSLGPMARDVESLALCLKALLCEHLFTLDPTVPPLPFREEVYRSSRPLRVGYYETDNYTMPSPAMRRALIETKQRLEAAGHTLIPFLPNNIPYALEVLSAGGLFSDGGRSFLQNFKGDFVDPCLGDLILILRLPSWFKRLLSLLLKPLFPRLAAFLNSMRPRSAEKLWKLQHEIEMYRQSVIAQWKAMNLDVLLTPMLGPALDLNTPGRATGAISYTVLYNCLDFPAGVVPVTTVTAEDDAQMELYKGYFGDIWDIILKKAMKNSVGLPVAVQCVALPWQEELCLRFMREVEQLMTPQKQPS

[3] = Selectivity for rat recombinant FAAH over KIAA1363
[4] = biological target: T2, Fatty-acid amide hydrolase 1 (Homo sapiens, UniProt O00519); assay: Inhibition of human FAAH expressed in COS-7 cells
T2 sequence (O00519 whole entry): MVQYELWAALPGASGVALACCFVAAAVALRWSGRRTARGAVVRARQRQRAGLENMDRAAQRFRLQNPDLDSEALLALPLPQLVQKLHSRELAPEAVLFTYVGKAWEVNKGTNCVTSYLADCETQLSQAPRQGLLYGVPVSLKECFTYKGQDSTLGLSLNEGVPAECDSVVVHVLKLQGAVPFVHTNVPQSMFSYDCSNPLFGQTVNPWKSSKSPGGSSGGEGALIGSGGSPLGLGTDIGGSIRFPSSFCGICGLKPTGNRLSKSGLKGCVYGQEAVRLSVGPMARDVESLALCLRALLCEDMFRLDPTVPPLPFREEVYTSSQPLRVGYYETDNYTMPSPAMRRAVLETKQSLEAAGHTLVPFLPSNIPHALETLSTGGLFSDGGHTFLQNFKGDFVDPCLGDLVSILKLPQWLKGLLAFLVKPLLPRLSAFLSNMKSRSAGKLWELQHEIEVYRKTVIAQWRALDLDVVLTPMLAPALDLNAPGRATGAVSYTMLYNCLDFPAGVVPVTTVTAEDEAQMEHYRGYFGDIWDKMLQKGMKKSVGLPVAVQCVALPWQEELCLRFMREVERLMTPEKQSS

SMILES	Ratio IC50 [1]	pKi [2]	Ratio IC50 [3]	Selectivity ratio [3]	pKi [4]
CSc1ccccc1CCCCCCC(=O)c1ncc(-c2ccccn2)o1	300	8.48	> 3300		
O=C(CCCCCCc1cccs1)c1ncc(-c2ccccn2)o1	35	8.37	> 5000		
CCCCCCc1cccc(CCCCCCC(=O)c2ncc(-c3ccccn3)o2)c1	250	7.82		> 1250	
CS(=O)(=O)c1cccc(CCCCCCC(=O)c2ncc(-c3ccccn3)o2)c1	1000	8.89	> 25000		
COC(=O)c1ccccc1CCCCCCC(=O)c1ncc(-c2ccccn2)o1	25000	9.00	> 250000		
O=C(CCCCCCc1cccc(Cl)c1Cl)c1ncc(-c2ccccn2)o1	70	9.05	> 14000		8.92
O=C(CCCCCCc1ccc2ccccc2c1)c1ncc(-c2ccccn2)o1	0.5	7.96	> 2500		
O=C(CCCCCCc1cccc(C(F)(F)F)c1)c1ncc(-c2ccccn2)o1	10	9.00	> 5000		
COC(=O)c1cccc(CCCCCCC(=O)c2ncc(-c3ccccn3)o2)c1	25000	8.72	> 250000		
O=C(CCCCCCc1ccccc1F)c1ncc(-c2ccccn2)o1	17	8.77	> 3300		
O=C(CCCCCCc1cccnc1)c1ncc(-c2ccccn2)o1	50	7.49	> 5000		
O=C(CCCCCCc1ccccc1Cl)c1ncc(-c2ccccn2)o1	30	8.72	> 5000		
O=C(COCCCCc1ccccc1)c1ncc(-c2ccccn2)o1	34	7.22	> 58		
COc1ccccc1CCCCCCC(=O)c1ncc(-c2ccccn2)o1	500	8.24	> 10000		
O=C(CCCCCCc1ccsc1)c1ncc(-c2ccccn2)o1	27	8.29	> 3300		

More lines, now with the values ahead:

Ratio IC50 [1]	pKi [2]	Ratio IC50 [3]	Selectivity ratio [3]	pKi [4]	SMILES
40	8.60	> 5000			CSc1ccc(CCCCCCC(=O)c2ncc(-c3ccccn3)o2)cc1
750	8.52	> 25000			Nc1ccc(CCCCCCC(=O)c2ncc(-c3ccccn3)o2)cc1
40	7.72	> 2000			CS(=O)(=O)c1ccc(CCCCCCC(=O)c2ncc(-c3ccccn3)o2)cc1
50	8.49	> 5000			O=C(CCCCCCc1ccc(F)cc1)c1ncc(-c2ccccn2)o1
1000	8.17	> 3300			CCCCCCc1ccc(CCCCCCC(=O)c2ncc(-c3ccccn3)o2)cc1
67	8.57	> 3300			O=C(CCCCCCc1ccc(Cl)cc1)c1ncc(-c2ccccn2)o1
250	8.21		> 5000		COc1ccc(CCCCCCC(=O)c2ncc(-c3ccccn3)o2)cc1
50	8.60	> 5000			COc1cccc(CCCCCCC(=O)c2ncc(-c3ccccn3)o2)c1
30	8.38	> 10000			CSc1cccc(CCCCCCC(=O)c2ncc(-c3ccccn3)o2)c1
170	8.48	> 3300			Cc1cccc(CCCCCCC(=O)c2ncc(-c3ccccn3)o2)c1
125	8.55	> 2500			Cc1ccc(CCCCCCC(=O)c2ncc(-c3ccccn3)o2)cc1
